Assays:
procaspase-3 = experiment: Hela cell extracts: radiolabeled procaspase-3 activation assay; type: biochemical; settings: S-100 extracts of HeLa cells, 35S-labeled caspase-3; AV peptoids (50 nM), Smac peptides 30–1000 mM; 30° C., 1 hr
Protocol: […] S-100 extracts of HeLa cells were incubated alone (Control), or with AV peptoids (50 nM) nM, or with […] of N-terminal Smac peptides in different lengths. The reactions were carried out with the addition of 1 mM DATP, 1 mM additional MgCl2, 0.2 mg/ml horse heart cytochrome c, and […] of in vitro translated, ^35S-labeled caspase-3 in a final volume of […]. The reaction mixtures were incubated at 30° C. for 1 hr followed by electrophoresis on a 15% PAGE gel. The gel was subsequently transferred onto a nitrocellulose filter and exposed to a phosphoimaging cassette.

[1] = biological target: T1, second BIR (baculoviral IAP repeat) motif of XIAP (Homo sapiens, UniProt P98170); experiment: In vitro IAP (BIR) binding/interaction assay, GST-mediated pull-down
T1 construct: recombinant IAP fragment (second BIR (baculoviral IAP repeat) motif of XIAP)
T1 sequence (P98170 124-240 limits assumed): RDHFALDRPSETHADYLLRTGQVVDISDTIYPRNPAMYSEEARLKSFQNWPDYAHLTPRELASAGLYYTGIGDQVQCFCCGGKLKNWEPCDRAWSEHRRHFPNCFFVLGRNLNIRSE
Protocol: Interaction between AV peptoids and IAPs was examined by GST-mediated pull-down assays. Approximately 0.4 mg of a recombinant IAP fragment (second BIR (baculoviral IAP repeat) motif of XIAP) was bound to […] of glutathione resin as a GST-fusion protein and incubated with 0.5 mg of radiolabeled AV peptoids at room temperature. After extensive washing with an assay buffer containing 25 mM Tris, pH 8.0, 150 mM NaCl, and 2 mM dithiothreitol (DTT), the complex was eluted with 5 mM reduced glutathione and visualized by SDS-PAGE with Coomassie staining.
Smac stimulates activation of procaspase-3 by relieving the IAP inhibition^20, 21. All members of the IAP family contain at least one BIR (baculoviral IAP repeat) motif and many contain three^9.

Wap-ras tumors = experiment: In vivo therapy in the WAP-RAS transgenic model; settings: Wap-ras transgenic mice with well developed tumors; peptoid 20 mpk po, paclitaxel 5 mpk ip
Protocol: Peptoid and Paclitaxel combination efficacy is also evaluated in the Wap-ras transgenic model.
Peptoid (20 mpk/dosing po) was dissolved in 20% hydroxyl-propyl-betacyclodexatrin (Vehicle I). 0.2 ml of peptoid solution is the oral dosing volume. Paclitaxel (5 mpk/dosing ip) was dissolved in a diluted ethanol/cremophor EL solution (vehicle II) and the i.p. dosing volume for paclitaxel was 0.1 ml.
The mice are weighed, randomized, and ear-marked on Day 0. Peptoid treatment and Vehicle I treatment began on Day 1 and continued every 12 hours until Day 21. Paclitaxel and Vehicle II treatments are started on Day 4 and continued daily on Day 5, 6, and 7.

NH2-KQAIPVA-COOH (H-KQAIPVA-OH) [Smac-7R]
activation of procaspase-3 (procaspase-3): did not
IAP Binding ([1]; Table 4, GST pull-down with radiolabeled AV peptoid, grades 0, ++, +++, key not given): 0

CC(=O)O[C@H]1C(=O)[C@@]2(C)[C@H]([C@H](OC(=O)c3ccccc3)[C@]3(O)C[C@H](OC(=O)[C@H](O)[C@@H](NC(=O)c4ccccc4)c4ccccc4)C(C)=C1C3(C)C)[C@]1(OC(C)=O)CO[C@@H]1C[C@@H]2O [Paclitaxel]
tumor response to treatment, single agent (Wap-ras tumors): do not respond

B1: Smac: Second mitochondria-derived activator of caspases (DIABLO); mature form contains 184 amino acids (protein, UniProt Q9NR28 22-239, looked up)
Diablo IAP-binding …: LCVPVVANFKKRCFSELIRPWHKTVTIGFGVTLCAVPIAQKSEPHSLSSEALMRRAVSLVTDSTSTFLSQTTYALIEAITEYTKAVYTLTSLYRQYTSLLGKMNSEEEDEVWQVIIGARAEMTSKHQEYLKLETTWMTAVGLSEMAAEAAYQTGADQASITARNHIQLVKLQVEEVHQLSRKAETKLAEAQIEELRQKTQEEGEERAESEQEAYLRED
specific binding/interaction with IAP (BIR domain of XIAP) ([1]; second or third BIR domain of XIAP): specifically interact
